# Source: patent US20100298141A1, “SUBSTITUTED PYRIDINE N-OXIDE HERBICIDES” (E. I. DU PONT DE NEMOURS AND COMPANY, priority 2007, published 2010)
# What was measured:
# giant foxtail [1] = assay: Test A pre-/postemergence greenhouse test; type: in vivo, Setaria faberi; settings: for Foxtail, Giant plant response rating: 0 to 100 scale
# Summary of the method: (§1)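 Greenhouse herbicide screen, pre- and postemergence in parallel. Soil: loam plus sand. Formulation: non-phytotoxic solvent mix with surfactant. Postemergence stage: one to two leaves, 2–10 cm height. Evaluation: visual injury, compared with untreated controls, about 10 days after treatment.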
# redroot pigweed = assay: Test A pre-/postemergence greenhouse test; type: in vivo, Amaranthus retroflexus; settings: for Pigweed plant response rating: 0 to 100 scale
# Summary of the method: as §1
# velvetleaf [2] = assay: Test A pre-/postemergence greenhouse test; type: in vivo, Abutilon theophrasti; settings: for Velvetleaf plant response rating: 0 to 100 scale
# Summary of the method: as §1
# wheat = assay: Test A pre-/postemergence greenhouse test; type: in vivo, Triticum aestivum; settings: for Wheat plant response rating: 0 to 100 scale
# Summary of the method: as §1
# corn = assay: Test A pre-/postemergence greenhouse test; type: in vivo, Zea mays; settings: for Corn plant response rating: 0 to 100 scale
# Summary of the method: as §1
# wild oat = assay: Test C pre-/postemergence test; type: in vivo, Avena fatua; settings: Preemergence
# Summary of the method: (§2)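 Compounds in a non-phytotoxic solvent with surfactant applied preemergence to seeded pots and, at the same time, postemergence to plants 2–18 cm tall (1- to 4-leaf stage). Paddy tests: pots flooded to 3 cm, compound applied into the water, depth held throughout.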
# bermudagrass = assay: Test C pre-/postemergence test; type: in vivo, Cynodon dactylon
# Summary of the method: as §2
# Surinam grass = assay: Test C pre-/postemergence test; type: in vivo, Brachiaria decumbens; settings: Preemergence
# Summary of the method: as §2
# giant foxtail [3] = assay: Test C pre-/postemergence test; type: in vivo, Setaria faberii; settings: Preemergence
# Summary of the method: as §2
# Goosegrass = assay: Test C pre-/postemergence test; type: in vivo, Eleusin indica; settings: Preemergence
# Summary of the method: as §2
# johnsongrass = assay: Test C pre-/postemergence test; type: in vivo, Sorghum halepense; settings: Preemergence
# Summary of the method: as §2
# lambsquarters = assay: Test C pre-/postemergence test; type: in vivo, Chenopodium album; settings: Preemergence
# Summary of the method: as §2
# eastern black nightshade = assay: Test C pre-/postemergence test; type: in vivo, Solanum ptycanthum; settings: Preemergence
# Summary of the method: as §2
# common ragweed = assay: Test C pre-/postemergence test; type: in vivo, Ambrosia elation; settings: Preemergence
# Summary of the method: as §2
# velvetleaf [4] = assay: Test C pre-/postemergence test; type: in vivo, Abutilon theophrasti; settings: Preemergence
# Summary of the method: as §2
# rice = assay: Test C flooded paddy test; type: in vivo, Oryza sativa; settings: Flood
# Summary of the method: (§3)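 Test compounds are applied straight into paddy water held 3 cm above the soil surface, with that flood maintained for the whole test. After 13 to 15 days in the greenhouse, each species is scored visually relative to controls.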
# duck salad = assay: Test C flooded paddy test; type: in vivo, Heteranthera limosa; settings: Flood
# Summary of the method: as §3
# barnyardgrass = assay: Test C flooded paddy test; type: in vivo, Echinochloa crus-galli; settings: Flood
# Summary of the method: as §3
# [5] = Postemergence, 125 g ai/ha, 0 is no effect, 100 is complete control
# [6] = Postemergence, 500 g ai/ha, 0 is no effect, 100 is complete control
# [7] = Preemergence, 125 g ai/ha, 0 no effect, 100 complete control
# [8] = Preemergence, 500 g ai/ha, 0 to 100 scale where 0 is no effect and 100 is complete control
# [9] = 31 g ai/ha, scale 0 to 100 (0 no effect, 100 complete control)
# [10] = 62 g ai/ha, scale 0 to 100, 0 no effect, 100 complete control, 13 to 15 days
# [11] = 125 g ai/ha, scale 0 to 100, 0 no effect, 100 complete control, 13 to 15 days
# [12] = 250 g ai/ha, scale 0 to 100 (0 no effect, 100 complete control)
structure (smiles),measurement,setting,value
Cn1nc(C(F)(F)F)c(C[S+]([O-])c2cccc[n+]2[O-])c1OCC(F)(F)F (racemic) [Compound 28],"Foxtail, Giant plant response rating",giant foxtail [1]; [5],90
same,"Foxtail, Giant plant response rating",giant foxtail [1]; [6],90
same,"Foxtail, Giant plant response rating",giant foxtail [1]; [7],100
same,"Plant response rating, Foxtail, Giant",giant foxtail [1]; [8],100
same,Pigweed plant response rating,redroot pigweed; [5],70
same,Pigweed plant response rating,redroot pigweed; [6],90
same,Pigweed plant response rating,redroot pigweed; [7],100
same,"Plant response rating, Pigweed",redroot pigweed; [8],100
same,Velvetleaf plant response rating,velvetleaf [2]; [5],70
same,Velvetleaf plant response rating,velvetleaf [2]; [6],80
same,Velvetleaf plant response rating,velvetleaf [2]; [7],80
same,"Plant response rating, Velvetleaf",velvetleaf [2]; [8],100
same,Wheat plant response rating,wheat; [5],60
same,Wheat plant response rating,wheat; [6],70
same,Wheat plant response rating,wheat; [7],70
same,"Plant response rating, Wheat",wheat; [8],100
same,Corn plant response rating,corn; [5],60
same,Corn plant response rating,corn; [6],70
same,Corn plant response rating,corn; [7],0
same,"Plant response rating, Corn",corn; [8],80
same,"Oat, Wild plant response rating","wild oat; 62 g ai/ha, scale 0 to 100",75
same,"Plant response rating, Oat, Wild",wild oat; [9],70
same,Bermudagrass plant response rating,"bermudagrass; 62 g ai/ha, Preemergence, scale 0 to 100 (0 no effect, 100 complete control)",100
same,"Plant response rating, Bermudagrass","bermudagrass; Preemergence, 31 g ai/ha, scale 0 to 100 (0 no effect, 100 complete control)",100
same,"Plant response rating (0 to 100), Bermudagrass","bermudagrass; Preemergence, 250 g ai/ha",100
same,Bermudagrass plant response rating,"bermudagrass; preemergence, 125 g ai/ha, scale 0 (no effect) to 100 (complete control)",100
same,Surinam Grass plant response rating,"Surinam grass; 62 g ai/ha, scale 0 to 100",100
same,"Plant response rating, Surinam Grass",Surinam grass; [9],85
same,"Foxtail, Giant plant response rating","giant foxtail [3]; 62 g ai/ha, scale 0 to 100",100
same,"Plant response rating, Foxtail, Giant",giant foxtail [3]; [9],95
same,"Plant response rating (0 to 100), Foxtail, Giant",giant foxtail [3]; 250 g ai/ha,100
same,Goosegrass plant response rating,"Goosegrass; 62 g ai/ha, scale 0 to 100",100
same,"Plant response rating, Goosegrass",Goosegrass; [9],100
same,"Plant response rating (0 to 100), Goosegrass",Goosegrass; 250 g ai/ha,100
same,Johnsongrass plant response rating,"johnsongrass; 62 g ai/ha, scale 0 to 100",100
same,"Plant response rating, Johnsongrass",johnsongrass; [9],85
same,"Plant response rating (0 to 100), Johnsongrass",johnsongrass; 250 g ai/ha,100
same,Lambsquarters plant response rating,"lambsquarters; 62 g ai/ha, scale 0 to 100",100
same,"Plant response rating, Lambsquarters",lambsquarters; [9],100
same,Nightshade plant response rating,"eastern black nightshade; 62 g ai/ha, scale 0 to 100",100
same,"Plant response rating, Nightshade",eastern black nightshade; [9],90
same,Ragweed plant response rating,"common ragweed; 62 g ai/ha, scale 0 to 100",85
same,"Plant response rating, Ragweed",common ragweed; [9],65
same,Velvetleaf plant response rating,"velvetleaf [4]; 62 g ai/ha, scale 0 to 100",100
same,"Plant response rating, Velvetleaf",velvetleaf [4]; [9],80
same,"Plant response rating, Rice",rice; [9],0
same,"Plant response rating, Rice",rice; [10],25
same,"Plant response rating, Rice",rice; [11],65
same,"Plant response rating, Rice",rice; [12],80
same,"Plant response rating, Ducksalad",duck salad; [9],65
same,"Plant response rating, Ducksalad",duck salad; [10],80
same,"Plant response rating, Ducksalad",duck salad; [11],95
same,"Plant response rating, Ducksalad",duck salad; [12],95
same,"Plant response rating, Barnyardgrass",barnyardgrass; [9],0
same,"Plant response rating, Barnyardgrass",barnyardgrass; [10],20
same,"Plant response rating, Barnyardgrass",barnyardgrass; [11],65
same,"Plant response rating, Barnyardgrass",barnyardgrass; [12],85
